In patent US20250206745A1, “PYRROLOPYRIDAZINE DERIVATIVES AND RELATED USES” (NodThera Limited, priority 2023, published 2025):
Structures can show the parent of a compound that is named as a salt.

Columns and labels:
[1] = system: IL-1β release upon NLRP3 activation in peripheral blood mononuclear cells (PBMC); assay: PBMC IC50 Determination Assay; assay type: cell-based; settings: Homo sapiens; inhibition of IL-1β release; PBMC primed with LPS, stimulated with ATP or nigericin; ELISA or HTRF
Experimental: The compounds of the present disclosure were tested for their inhibitory activity against IL-1β release upon NLRP3 activation in peripheral blood mononuclear cells (PBMC).
Protocol A. PBMC were isolated from buffy coats by density gradient centrifugation on Histopaque-1077 (Sigma, cat no. 10771). Isolated cells were seeded into the wells of a 96-well plate and incubated for 3 h with lipopolysaccharide (LPS). Following medium exchange, the compounds of the present disclosure were added (a single compound per well) and the cells were incubated for 30 min. Next, the cells were stimulated either with ATP (5 mM) or nigericin (10 μM) for 1 h and the cell culture media from the wells were collected for further analysis.
The release of IL-1β into the media was determined by a quantitative detection of IL-1β in the media using an IL-1β enzyme-linked immunosorbent assay (ELISA) Ready-SET-Go!, eBioscience cat. No. 88-7261-88. Briefly, in a first step, high affinity binding plates (Corning, Costar 9018 or NUNC Maxisorp Cat No. 44-2404) were coated overnight at 4° C. with specific capture antibody included in the kit (anti-human IL-1β ref. 14-7018-68). Subsequently, plates were blocked with blocking buffer for 1 h at room temperature (rt) and after washing with a buffer (PBS with 0.05% Tween-20) incubated with protein standard and culture media. After 2 h of incubation at rt, plates were washed and incubated with biotinylated detection antibody included in the kit (anti-human IL-1β Biotin ref. 33-7110-68) for 1 h at rt. Plates were washed and incubated with HRP-streptavidin for 30 min at rt and washed again. The signal was developed after addition of 3,3′,5,5′-tetramethylbenzidine-peroxidase (TMB) until colour appeared and the reaction was stopped by 2 M H2SO4. A microplate spectrophotometer (BioTek) was used to detect signals with 450 nm. The detection range of IL-1β ELISA was […].
Protocol B. PBMC were isolated from buffy coats by density gradient centrifugation on Histopaque-1077 (Sigma, cat no. 10771). Isolated cells were seeded into the wells (280,000 cells/well) of a 96-well plate and incubated for 3 h with lipopolysaccharide (LPS, 1 μg/mL diluted 1000× from a 1 mg/mL stock solution). The compounds of the present disclosure were added (a single compound per well) and the cells were incubated for 30 min. Next, the cells were stimulated with ATP (5 mM final concentration diluted 20× from a 100 mM stock solution) for 1 h and the cell culture media from the wells were collected for further analysis.
The release of IL-1β into the media was determined by quantitative detection of IL-1β in the media using HTRF®, CisBio cat. No. 62HIL1BPEH. Briefly, cell culture supernatant were dispensed directly into the assay plate containing antibodies labelled with the HTRF® donor and acceptor. A microplate spectrophotometer (BMG) was used to detect signals at 655 nm and 620 nm. The detection range of IL-1β HTRF® was 39-6500 pg/mL.

[2] = system: IL-1β release upon NLRP3 activation in phorbol 12-myristate 13-acetate (PMA)-differentiated THP-1 cells; assay: THP-1 IC50 Determination Assay; assay type: cell-based; settings: Homo sapiens, inhibition of IL-1β release, LPS, nigericin, ELISA
Experimental: The compounds of the present disclosure were tested for their inhibitory activity against IL-1β release upon NLRP3 activation in phorbol 12-myristate 13-acetate (PMA)-differentiated THP-1 cells.
THP-1 cells stored in liquid nitrogen were thawed in a 37° C. water bath. The cells were added into complete RPMI 1640 medium (FBS (56 mL), 100× Penicillin-Streptomycin (5.6 mL) and 0.05 mM 2-Mercaptoethanol in RPMI 1640 Medium (500 mL)) and centrifuged for 5 min at 1000 rpm. The supernatant was discarded and the cells resuspended into new cell culture medium for culturing. Cells were cultured in cell culture medium and passaged every 3-4 days to maintain cell density between 4×10^5 and 1.5×10^6 cells/mL. The cells were diluted to 0.8×10^6 cells/mL and grown in a T150 flask with PMA (final concentration 5 ng/mL). The flask was incubated in a 37° C. incubator with a humidified atmosphere of 5% CO2 for −40 hours. After −40 hours of PMA differentiation, the flask was washed with DPBS. Cells were digested with Trypsin LE for about 5 min at room temperature, and digestion was terminated using complete RPMI 1640 medium. Cells were centrifuged and resuspended (1000 rpm, 3 min). The supernatant was discarded and cells washed with DPBS, centrifuged and resuspended cells (1000 rpm, 5 min). Cells were plated at 30,000 cells/well in a 384-well PP plate and treated with 25 ng/mL LPS solution diluted in serum-free medium (45 μL). The plate was incubated in a 37° C. incubator with a humidified atmosphere of 5% CO2 for 2 hours. Compounds (from 10 mM DMSO solution) were dispensed and serially diluted by 1:3 eight times, with final 0.5% DMSO concentration. NLRP3 inflammasome was activated with nigericin (5 μL), the plate was centrifuged (1000 rpm, 30 s) and incubated in a 37° C. incubator with a humidified atmosphere of […] for 2 hours. 35 μL/well of supernatant was removed and IL-1β levels determined by ELISA assay (Mabtech 3416-1H-20) according to the manufacturer's instructions.

## Cc1cc(Cl)cc(O)c1-c1cc2ccn(CC3CN(C)CCO3)c2nn1 (centres unmarked) [Compound 34, 5-Chloro-3-methyl-2-{7-[(4-methylmorpholin-2-yl)methyl]-7H-pyrrolo[2,3-c]pyridazin-3-yl}phenol hydrochloride]
[1]
  IC50: 300 to 1000 nM
[2]
  IC50: 300 to 1000 nM

## Cc1cc(Cl)cc(O)c1-c1cc2ccn(CC3CCN(C)CC3(F)F)c2nn1 (centres unmarked) [Compound 35, 5-Chloro-2-{7-[(3,3-difluoro-1-methylpiperidin-4-yl)methyl]-7H-pyrrolo[2,3-c]pyridazin-3-yl}-3-methylphenol hydrochloride]
[1]
  IC50: 100 to 300 nM
[2]
  IC50: 300 to 1000 nM

## Cc1cc(Cl)cc(O)c1-c1cc2ccn(CC(=O)N3CCCCC3)c2nn1 [Compound 36, 2-[3-(4-Chloro-2-hydroxy-6-methylphenyl)-7H-pyrrolo[2,3-c]pyridazin-7-yl]-1-(piperidin-1-yl)ethan-1-one]
[1]
  IC50: 300 to 1000 nM
[2]
  IC50: 300 to 1000 nM

## Cc1cc(Cl)cc(O)c1-c1cc2ccn(CC3CCOCC3)c2nn1 [Compound 37, 5-Chloro-3-methyl-2-{7-[(oxan-4-yl)methyl]-7H-pyrrolo[2,3-c]pyridazin-3-yl}phenol]
[1]
  IC50: 100 to 300 nM
[2]
  IC50: 300 to 1000 nM

## Cc1cc(Cl)cc(O)c1-c1cc2ccn(CCN3CCCCC3)c2nn1 [Compound 38, 5-Chloro-3-methyl-2-{7-[2-(piperidin-1-yl)ethyl]-7H-pyrrolo[2,3-c]pyridazin-3-yl}phenol hydrochloride]
[1]
  IC50: 300 to 1000 nM
[2]
  IC50: 300 to 1000 nM

## Cc1cc(Cl)cc(O)c1-c1cc2ccn(CC3CCCN3C)c2nn1 (centres unmarked) [Compound 39, 5-Chloro-3-methyl-2-{7-[(1-methylpyrrolidin-2-yl)methyl]-7H-pyrrolo[2,3-c]pyridazin-3-yl}phenol hydrochloride]
[1]
  IC50: 100 to 300 nM
[2]
  IC50: 300 to 1000 nM

## Cc1cc(Cl)cc(O)c1-c1cc2ccn(CCN3CCCC3=O)c2nn1 [Compound 40, 1-{2-[3-(4-Chloro-2-hydroxy-6-methylphenyl)-7H-pyrrolo[2,3-c]pyridazin-7-yl]ethyl}pyrrolidin-2-one]
[1]
  IC50: 1000 to 3000 nM
[2]
  IC50: 1000 to 3000 nM

## Cc1cc(Cl)cc(O)c1-c1cc2ccn(CC3COCCN3C)c2nn1 (centres unmarked) [Compound 41, 5-Chloro-3-methyl-2-{7-[(4-methylmorpholin-3-yl)methyl]-7H-pyrrolo[2,3-c]pyridazin-3-yl}phenol hydrochloride]
[1]
  IC50: 100 to 300 nM
[2]
  IC50: 300 to 1000 nM

## Cc1cc(Cl)cc(O)c1-c1cc2ccn(CC3CCCOC3)c2nn1 (centres unmarked) [Compound 42, 5-Chloro-3-methyl-2-{7-[(oxan-3-yl)methyl]-7H-pyrrolo[2,3-c]pyridazin-3-yl}phenol]
[1]
  IC50: 100 to 300 nM
[2]
  IC50: 300 to 1000 nM

## Cc1cc(Cl)cc(O)c1-c1cc2ccn(CC3CCCO3)c2nn1 (centres unmarked) [Compound 43, 5-Chloro-3-methyl-2-{7-[(oxolan-2-yl)methyl]-7H-pyrrolo[2,3-c]pyridazin-3-yl}phenol]
[1]
  IC50: 100 to 300 nM
[2]
  IC50: 100 to 300 nM

## CC(=O)NCCn1ccc2cc(-c3c(C)cc(Cl)cc3O)nnc21 [Compound 44, N-{2-[3-(4-Chloro-2-hydroxy-6-methylphenyl)-7H-pyrrolo[2,3-c]pyridazin-7-yl]ethyl}acetamide]
[1]
  IC50: 300 to 1000 nM
[2]
  IC50: 300 to 1000 nM

## Cc1cc(Cl)cc(O)c1-c1cc2ccn(CCN3CCC(=O)C3)c2nn1 [Compound 45, 1-{2-[3-(4-Chloro-2-hydroxy-6-methylphenyl)-7H-pyrrolo[2,3-c]pyridazin-7-yl]ethyl}pyrrolidin-3-one]
[1]
  IC50: 300 to 1000 nM
[2]
  IC50: 300 to 1000 nM

## Cc1cc(Cl)cc(O)c1-c1cc2ccn(C[C@@H]3CCCCN3C)c2nn1 [Compound 46, 5-Chloro-3-methyl-2-(7-{[(2S)-1-methylpiperidin-2-yl]methyl}-7H-pyrrolo[2,3-c]pyridazin-3-yl)phenol hydrochloride]
[1]
  IC50: 30 to 100 nM
[2]
  IC50: 100 to 300 nM

## Cc1cc(Cl)cc(O)c1-c1cc2ccn(C[C@H]3CCCCN3C)c2nn1 [Compound 47, 5-Chloro-3-methyl-2-(7-{[(2R)-1-methylpiperidin-2-yl]methyl}-7H-pyrrolo[2,3-c]pyridazin-3-yl)phenol hydrochloride]
[1]
  IC50: 100 to 300 nM
[2]
  IC50: 300 to 1000 nM

## Cc1cc(Cl)cc(O)c1-c1cc2ccn(CC3COC3)c2nn1 [Compound 48, 5-Chloro-3-methyl-2-{7-[(oxetan-3-yl)methyl]-7H-pyrrolo[2,3-c]pyridazin-3-yl}phenol]
[1]
  IC50: 100 to 300 nM
[2]
  IC50: 100 to 300 nM

## Cc1cc(Cl)cc(O)c1-c1cc2ccn(CC3CCN(C)C4(CC4)C3)c2nn1 (centres unmarked) [Compound 49, 5-Chloro-3-methyl-2-[7-({4-methyl-4-azaspiro[2.5]octan-7-yl}methyl)-7H-pyrrolo[2,3-c]pyridazin-3-yl]phenol hydrochloride]
[1]
  IC50: 100 to 300 nM
[2]
  IC50: 300 to 1000 nM

## Cc1cc(Cl)cc(O)c1-c1cc2ccn(C(=O)N3CCN(C)CC3)c2nn1 [Compound 50, 5-Chloro-3-methyl-2-[7-(4-methylpiperazine-1-carbonyl)-7H-pyrrolo[2,3-c]pyridazin-3-yl]phenol hydrochloride]
[1]
  IC50: 3000 to 10000 nM
[2]
  IC50: 300 to 1000 nM

## Cc1cc(Cl)cc(O)c1-c1cc2ccn(CC3CC4(C3)CN(C)C4)c2nn1 [Compound 52, 5-Chloro-3-methyl-2-[7-({2-methyl-2-azaspiro[3.3]heptan-6-yl}methyl)-7H-pyrrolo[2,3-c]pyridazin-3-yl]phenol hydrochloride]
[1]
  IC50: 300 to 1000 nM
[2]
  IC50: 100 to 300 nM

## CC(=O)N1CCCC(Cn2ccc3cc(-c4c(C)cc(Cl)cc4O)nnc32)C1 (centres unmarked) [Compound 53, 1-(3-{[3-(4-Chloro-2-hydroxy-6-methylphenyl)-7H-pyrrolo[2,3-c]pyridazin-7-yl]methyl}piperidin-1-yl)ethan-1-one]
[1]
  IC50: 100 to 300 nM
[2]
  IC50: 100 to 300 nM

## Cc1cc(C#N)cc(O)c1-c1cc2ccn(CC3CCN(C)CC3)c2nn1 [Compound 54, 3-Hydroxy-5-methyl-4-{7-[(1-methylpiperidin-4-yl)methyl]-7H-pyrrolo[2,3-c]pyridazin-3-yl}benzonitrile]
[1]
  IC50: 100 to 300 nM
[2]
  IC50: 300 to 1000 nM

## Cc1cc(Cl)cc(O)c1-c1cc2ccn(CC3(C#N)CCN(C)CC3)c2nn1 [Compound 55, 4-{[3-(4-Chloro-2-hydroxy-6-methylphenyl)-7H-pyrrolo[2,3-c]pyridazin-7-yl]methyl}-1-methylpiperidine-4-carbonitrile]
[1]
  IC50: 30 to 100 nM
[2]
  IC50: 30 to 100 nM

## Cc1cc(Cl)cc(O)c1-c1cc2ccn(CC3(O)CCN(C)CC3)c2nn1 [Compound 56, 4-{[3-(4-Chloro-2-hydroxy-6-methylphenyl)-7H-pyrrolo[2,3-c]pyridazin-7-yl]methyl}-1-methylpiperidin-4-ol hydrochloride]
[1]
  IC50: < 30 nM
[2]
  IC50: < 30 nM
